According to patent US20130252950A1, “TARGETING MTOR SUBSTRATES IN TREATING PROLIFERATIVE DISEASES” (President and Fellows of Harvard College, priority 2010, published 2013):

What was measured:
[1] = test system: Grb10 protein in TSC2−/− cells; assay: Immunoblot of Grb10 protein level after long-term treatment; format: cell-based, mouse; settings: TSC2−/− MEFs stably expressing HA-tagged Grb10-DD, long-term 20 nM rapamycin
Excerpt: (§1) FIG. 3. mTOR-mediated Grb10 phosphorylation is important for Grb10 stability. (A) Grb10 interacts with raptor, but not rictor. HA-tagged Grb10 was co-transfected with Myc-raptor or Myc-rictor in HEK293T cells. Cells were lysed in lysis buffer A, and the lysates were subjected to immunoprecipitation using anti-HA antibody conjugated beads. Raptor and rictor were probed with an antibody against the Myc-tag. (B) Grb10 is phosphorylated by mTOR in vitro. […] Phosphorylation of Grb10 at S501/S503 was detected by using the phospho-specific antibody against these two sites. (C) Long-term rapamycin treatment leads to Grb10 degradation in TSC2−/− cells. Note that Grb10 protein expression levels inversely correlated with Akt activity. Grb10 is highly overexpressed in TSC2−/− cells. mRNA level was determined using quantitative RT-PCR based on three biological replicate experiments. (D) Knockdown of raptor in TSC2−/− cells decreased Grb10 protein level. Cells were starved overnight and the lysates were probed with the antibodies indicated. (E) Grb10 is highly overexpressed in TSC2−/− cells. (F) S501A/S503A mutant is unstable compared with the wild-type or the S501D/S503D mutant. The same amount of DNA was transfected into HEK293T cells. […] Endogenous Grb10 was detected using an antibody that preferentially recognizes mouse Grb10 whereas the Grb10 DD mutant (of human origin) was detected using an anti-HA antibody.
FIG. 9. Phosphorylation of Grb10 at S501/S503 regulates its stability. […] Preincubation of the antibody with the […] completely eliminated the immunoreactivity. (B) Further validation of the phospho-specific antibody raised against the Grb10 S501/S503 sites. Grb10 WT, S501A/S503A (AA) and S501D/S503D (DD) were transfected into HEK239T cells and were probed with the antibody. Note that this antibody detected wild type (WT) Grb10, but neither of the mutant proteins. (C) Treatment of TSC2−/− cells with various mTOR kinase inhibitors led to Grb10 degradation. […] (E) Grb10 is highly overexpressed in TSC1−/− cells compared with their wild-type counterparts. (F) rapamycin treatment of TSC2−/− cells stably expressing wild type (WT) Grb10 led to lower levels of both endogenous and exogenous Grb10.
In addition, long-term treatment with mTOR kinase inhibitors, including LY-294002, NVP-BEZ235, torin and pp 242 all led to reduced Grb10 protein expression (FIG. 9C). Similar results were obtained in TSC1−/− MEFs (FIG. 9D). In contrast, we found Grb10 was highly overexpressed in TSC2−/− and TSC1−/− MEFs compared with their wild-type counterparts (FIGS. 3E and 9E), correlating with elevated mTORC1 activity in these cells. […]

[2] = test system: Grb10 mRNA in TSC2−/− cells; assay: Quantitative RT-PCR of Grb10 mRNA; format: cell-based, mouse; settings: three biological replicates
Excerpt: as §1, with “Note that Grb10 protein expression levels inversely correlated with Akt activity.” left out, “experiments.” for “experiments. (D) Knockdown of raptor in TSC2−/− cells decreased Grb10 protein level. Cells were starved overnight and the lysates were probed with the antibodies indicated. (E) Grb10 is highly overexpressed in TSC2−/− cells. (F) S501A/S503A mutant is unstable compared with the wild-type or the S501D/S503D mutant. The same amount of DNA was transfected into HEK293T cells.”, “antibody. […]” for “antibody.”
Total cellular RNA was purified from cultured cells using the RNeasy mini kit (Qiagen) following the manufacturer's protocol. For quantitative real-time PCR (qRT-PCR), RNA was reverse-transcribed using the High-Capacity cDNA Reverse Transcription Kit (Applied Biosystems) according to the manufacturer's instructions. The resulting cDNA was analyzed by qRT-PCR using the QuantiTect SYBR Green qPCR System (Qiagen). […]

Compound: CO[C@H]1C[C@@H]2CC[C@@H](C)[C@@](O)(O2)C(=O)C(=O)N2CCCC[C@H]2C(=O)O[C@H]([C@H](C)C[C@@H]2CC[C@@H](O)[C@H](OC)C2)CC(=O)[C@H](C)/C=C(\C)[C@@H](O)[C@@H](OC)C(=O)[C@H](C)C[C@H](C)/C=C/C=C/C=C/1C [rapamycin]
- Grb10 S501D/S503D (DD) mutant protein levels [1]: no effect
- decrease in Grb10 mRNA levels after long-term rapamycin [2]: approximately 2 fold
